Assay: Permeability of compound at pH 7.4 at 200 uM measured after 5 hrs by PAMPA assay

- Papp at 5 h, 200 µM: 10.5 ×10⁻⁶ cm/s
Compound: CCC([Se]c1ccc2ccccc2c1)c1nc(N)nc(N2CCN(C)CC2)n1 (stereo unspecified)

Reference: ChEMBL document CHEMBL5335798 (J Med Chem, 2024)
